Measurements as given in patent US4918064A, “Phenyl glycines for use in reducing neurotoxic injury” (G. D. Searle & Co., priority 1987, dated 1990).

Legend:
[1] = target: NMDA receptor; experiment: NMDA-specific L-[3H]glutamate receptor binding assay, synaptic plasma membranes; settings: L-[3H]glutamate 12.5 nM, Triton X-100 treated SPM, 0-4° C., 10 min
Experimental: (§1) Synaptic plasma membranes (SPM) were prepared as previously described [Monahan, J. B. and Michel, J., "Identification and Characterization of an N-methyl-D-aspartate-specific L[^3 H]glutamate Recognition Site in Synaptic Plasma Membranes, J. Neurochem., 48, 1699-1708 (1987)]. The SPM were stored at a concentration of 10-15 mg/ml in 0.32M sucrose, 0.5 mM EDTA, 1 mM MgSO4, 5 mM Tris/SO4, pH 7.4, under liquid nitrogen. The identity and purity of the subcellular fractions were confirmed by both electron microscopy and marker enzymes. Protein concentrations were determined by using a modification of the method of Lowry [Ohnishi, S. T. and Barr, J. K., "A Simplified Method of Quantitating Proteins Using the Biuret and Phenol Reagents", Anal. Biochem., 86, 193-197 (1978)].
Prior to use in the NMDA-specific L-[^3 H]glutamate binding assay the SPM were thawed, diluted twenty fold with 50 mM Tris/acetate, pH 7.4 containing 0.04% (v/v) Triton X-100, incubated for 30 minutes at 37° C. and centrifuged as described above. The Triton X-100 treated membranes were washed with 50 mM Tris/acetate, pH 7.4 and centrifuged at 100,000 g for 15 minutes a total of four times.
(§2) The basic procedure for the receptor subclass binding assays was similar. This general method involved adding the radioligand (12.5 nM L-[^3 H]glutamate; 0.5 nM [^3 H]kainate or 10 nM [^3 H]AMPA) to the appropriate concentration of the test compound and initiating the assay by the addition of ice cold synaptic plasma membranes (0.2-0.45 mg). The binding assays were performed in 1.5 mL centrifuge tubes with the total volume adjusted to 1.0 mL. .Additions of test compounds were made in 50 mM Tris/acetate, pH 7.4 and incubations were carried out at 0°-4° C. The incubation time for the NMDA and the AMPA binding assays was 10 minutes, for the kainate binding assay 60 minutes and for the sodium-dependent glutamate binding assay 15 minutes. The AMPA binding assay contained 100 mM KSCN and the sodium-dependent glutamate binding assay contained 150 mM sodium acetate in addition to the previously described reagents.
(§3) To terminate the incubation, the samples were centrifuged for 15 minutes at 12,000 g and 4° C. in a Beckman Microfuge 12. The supernatant was aspirated and the pelleted membranes dissolved in Beckman BTS-450 tissue solubilizer for a minimum of 6 hours at room temperature. Beckman MP scintillation cocktail containing 7 mL/1 acetic acid was then added and the samples counted on a Beckman LS 5800 or 3801 liquid scintillation counter with automatic corrections for quenching and counting efficiency.
(§4) Nonspecific binding was defined as the residual binding in the presence of either excess L-glutamate (0.1-0.4 mM), kainate (0.01 mM), or NMDA (0.5 mM), and was 15-25% of the total binding in the NMDA binding assay, 19-27% in the AMPA binding assay, 20-30% in the kainate binding assay and 10-15% in the sodium-dependent binding assay. Radioligand binding to the synaptic plasma membranes was analyzed using Scatchard and Hill transformations and the Ki values of the compounds determined using logit-log transformations. Calculations and regression analysis were performed using templates developed for Lotus 1, 2, 3 as previously described [Pullan, L. M. "Automated Radioligand Receptor Binding Analysis with Templates for Lotus", Computer Appln. Biosci., 3 131 (1987)]. Binding results are reported in Table II for example compounds of the invention. […]

[2] = target: KA (kainate) receptor; experiment: [3H]kainate receptor binding assay, synaptic plasma membranes; settings: [3H]kainate 0.5 nM, 0-4° C., 60 min
Experimental: as §1
(§5) The SPM were treated identically for the [^3 H]AMPA (QUIS), [^3 H]kainate and sodium-dependent L-[^3 H]-glumatate binding assays. The SPM were thawed at room temperature, diluted twenty-fold with 50 mM Tris/acetate, pH 7.4, incubated at 37° C. for 30 minutes, and centrifuged at 100,000 g for 15 minutes. The dilution, incubation, and centrifugation was repeated a total of three times.
as §2, §3, §4

[3] = target: Quis (quisqualate) receptor; experiment: [3H]AMPA (QUIS) receptor binding assay, synaptic plasma membranes; settings: [3H]AMPA 10 nM, 100 mM KSCN, 0-4° C., 10 min
Experimental: as §1, §5, §2, §3, §4

[4] = tested on: CD-1 mouse; experiment: In Vivo 3-MPA-Induced Convulsions (tonic hindlimb extension)
Experimental: In the CD-1 mouse, i.p. injection of 3-MPA produces clonic seizures, tonic hindlimb extension and death. Seizures begin within 2-3 minutes after injection. The dose-response for induction of tonus by 3-MPA is unusual. The incidence of tonus increases rapidly from 35 to 50 mg/kg and remains constant at a less than maximal level over a broad dose range. 3-MPA doses from 50 to 150 mg/kg produce tonus in approximately 75% of the treated mice. The incidence of death over this dose range is variable and less than maximal.
In order to test for antagonism of 3-MPA-induced tonus, the lowest dose of 3-MPA that produced tonus consistently in 75% of the animals (50 mg/kg i.p.) was chosen. Test compounds were administered subcutaneously 30-40 minutes prior to i.p. administration of 3-MPA. Immediately after 3-MPA administration, each mouse was placed in a small cage made of steel rods. The mice were then observed for the presence or absence of tonic hindlimb extension. Reduction (from 75%) in the incidence of tonic hindlimb extension was considered protection from 3-MPA-induced convulsions. The dose of the test compound varied using groups of ten mice per dose until dose response curves are constructed, and ED50 's are calculated.

[5] = tested on: chick embryo retina; settings: agonist alone, pilot experiments, 30 min; cited from earlier work

Structure (SMILES) | Ki [1] [µM] | Receptor binding, KA (Ki) [2] [µM] | Ki [3] [µM] | mice with tonus produced by 3-MPA ([4]; 3-MPA 50 to 150 mg/kg i.p.) | time after injection at which seizures begin ([4]; 3-MPA i.p.) [min] | lowest dose of 3-MPA that produced tonus consistently in 75% of the animals ([4]; i.p.) [mg/kg] | lowest concentration required to consistently obtain fully developed retinal lesions [5] [µM]
NC(CCCCCP(=O)(O)O)C(=O)O (racemic) [D,L-AP7, D,L-2-amino-7-phosphonoheptanoic acid, reference compound] | 5.4 | > 300 | > 300 | – | – | – | –
N[C@H](CCCCCP(=O)(O)O)C(=O)O [D-AP7, reference compound] | 4 | > 300 | > 300 | – | – | – | –
O=C(O)CCS [Example 3-MPA] | – | – | – | approximately 75% | 2 to 3 | 50 | –
C=C(C)[C@H]1CN[C@H](C(=O)O)[C@H]1CC(=O)O [KA, Kainate] | – | – | – | – | – | – | 25
CCOP(=O)(O)Cc1ccc(C(N)C(=O)O)cc1 (stereo not shown) [VII, 4-(Ethylphosphonomethyl)phenylglycine] | 70 | > 300 | > 300 | – | – | – | –
Cc1cc(C(N)C(=O)O)c(C)cc1CP(=O)(O)O.Cl (stereo not shown) [X, 2,5-dimethyl-4-(phosphonomethyl)phenylglycine hydrochloride] | 21.3 | > 300 | > 300 | – | – | – | –
